Among the data in patent publication US12565522B2, “Micropeptide HMMW and application thereof” (NANJING ANJI BIOTECHNOLOGY CO., LTD., priority 2019, dated 2026) are invasion inhibition rate values, retold here.

Test in all cases: Matrigel transwell invasion test
Type in all cases: cell-based, human
Holding throughout (settings): 24 h

Experiment [1] relates to UOK262 cells of kidney cancer. On the procedure:
(§1) Dilute 10 mg/mL Matrigel with culture medium at 1:3, spread it on membranes of transwell cells and dry it in the air at room temperature. Use trypsin to digest and collect SCC4 cells of head and neck cancer, SW579 cells of thyroid cancer, A549 cells of lung cancer, TE13 cells of esophageal squamous cell carcinoma, MGC803 cells of stomach cancer, MDA-MB-231 cells of breast cancer, UOK262 cells of kidney cancer, and A431 cells of skin cancer of human, which were cultured to the logarithmic phase, wash with PBS twice and re-suspend with a blank culture medium. Adjust cell concentration to 1×10^5 cells/mL. Inoculate the cells to transwell cells, 100 μL per well, and meanwhile add micropeptides HMMW I to IX at different doses to every cell. Add 0.6 mL of complete medium containing 10% FBS to the transwell cells to stimulate cell invasion, and culture in 5% CO2 at 37 DEG C. for 24 h. Discard the medium in the wells, fix with 90% alcohol at room temperature for 30 min, stain with 0.1% crystal violet at room temperature for 10 min, rinse with clear water, gently wipe off the non-invaded cells in the upper layer with a cotton swab, observe under a microscope and select four fields of view to take pictures and count. Calculate the invasion inhibition rate (IIR) of the cells according to the following formula:
(§2) [formula] where Ntest is the number of invaded cells in the test groups (the groups at a dose of 1, 4 or 16 μM in the table), Ncontrol is the number of invaded cells in the blank control groups (the groups at a dose of 0 μM in the table). The test was repeated independently three times. Mean±SD was calculated based on the test results. Statistical t test was done. Value P was used to express statistical difference. The statistical significance of the results is a method for estimating how true the results are (the totality can be represented), *P<0.05 means significant difference, and **P<0.01 means very significant difference.

Experiment [2] concerns MGC803 cells of stomach cancer. The protocol: as §1, §2
Experiment [3] deals with TE13 cells of esophageal squamous cell carcinoma. The protocol:
as §1, §2

The subject of experiment [4] is SW579 cells of thyroid cancer. The protocol: as §1, §2
Experiment [5] relates to A549 cells of lung cancer. The protocol: as §1, §2
Experiment [6] has as its system A431 cells of skin cancer. On the procedure: as §1, §2
Experiment [7] deals with MDA-MB-231 cells of breast cancer. The protocol: as §1, §2
Experiment [8] relates to SCC4 cells of head and neck cancer. On the procedure: as §1, §2

No end group written: not given here.

On to “MERAGVPGFSPRRSSVEAKMQSTSCSVRKSSTVTAWPAVVLLLHTSKDDEE-OH [HMMW-II]”, for which the invasion inhibition rate turned out to be 34.70% in experiment [1] (dose 1 μM); 54.16% in experiment [1] (dose 4 μM); 65.64% in experiment [1] (dose 16 μM); 27.52% in experiment [2] (dose 1 μM); 51.04% in experiment [2] (dose 4 μM); 66.51% in experiment [2] (dose 16 μM). Further, the invasion inhibition rate was 21.41% in experiment [3] (dose 1 μM); 43.46% in experiment [3] (dose 4 μM); 64.56% in experiment [3] (dose 16 μM); 22.13% in experiment [4] (dose 1 μM); 45.78% in experiment [4] (dose 4 μM); 66.73% in experiment [4] (dose 16 μM). Besides, the invasion inhibition rate in experiment [5] (dose 1 μM) is given as 33.25%; in experiment [5] (dose 4 μM), 55.12%; in experiment [5] (dose 16 μM), 65.09%; in experiment [6] (dose 1 μM), 31.71%; in experiment [6] (dose 4 μM), 53.41%; in experiment [6] (dose 16 μM) it was 68.25%. Besides, the invasion inhibition rate came out at 25.93% in experiment [7] (dose 1 μM); 47.75% in experiment [7] (dose 4 μM); 71.52% in experiment [7] (dose 16 μM); 21.72% in experiment [8] (dose 1 μM); 45.14% in experiment [8] (dose 4 μM); 73.80% in experiment [8] (dose 16 μM).
For “MERAGVPGFSPRRSSVEAKMQSTSCSVRKSSTVTAWPAVVLLLSWGKDDEE-OH [HMMW-IV]”, the invasion inhibition rate in experiment [1] (dose 1 μM) came out at 38.40%; in experiment [1] (dose 4 μM), 58.36%; in experiment [1] (dose 16 μM) it was 67.62%; in experiment [2] (dose 1 μM), 23.50%; in experiment [2] (dose 4 μM), 54.21%; in experiment [2] (dose 16 μM), 63.49%. In addition, the invasion inhibition rate in experiment [3] (dose 1 μM) is 22.40%; in experiment [3] (dose 4 μM), 42.42%; in experiment [3] (dose 16 μM) it was 67.51%; in experiment [4] (dose 1 μM) it was 23.10%; in experiment [4] (dose 4 μM), 46.71%; in experiment [4] (dose 16 μM), 67.72%. For the same substance, the invasion inhibition rate in experiment [5] (dose 1 μM) was determined as 34.22%; in experiment [5] (dose 4 μM), 56.11%; in experiment [5] (dose 16 μM), 65.24%; in experiment [6] (dose 1 μM), 36.25%; in experiment [6] (dose 4 μM), 57.19%; in experiment [6] (dose 16 μM), 71.36%. Besides, the invasion inhibition rate in experiment [7] (dose 1 μM) turned out to be 24.91%; in experiment [7] (dose 4 μM), 46.73%; in experiment [7] (dose 16 μM) it was 71.64%; in experiment [8] (dose 1 μM) it was 22.79%; in experiment [8] (dose 4 μM), 47.34%; in experiment [8] (dose 16 μM), 74.40%.
Consider “MERAGVPGFSPRRSSVEAKMQSTSCSVRKSSTVTAWPAVVLLLSWGQRDEE-OH [HMMW-VI]”, for which the invasion inhibition rate amounted to 38.15% in experiment [1] (dose 1 μM); 58.28% in experiment [1] (dose 4 μM); 67.51% in experiment [1] (dose 16 μM); 23.42% in experiment [2] (dose 1 μM); 54.19% in experiment [2] (dose 4 μM); 63.35% in experiment [2] (dose 16 μM). The invasion inhibition rate came to 22.25% in experiment [3] (dose 1 μM); 42.39% in experiment [3] (dose 4 μM); 67.47% in experiment [3] (dose 16 μM); 23.29% in experiment [4] (dose 1 μM); 46.63% in experiment [4] (dose 4 μM); 67.58% in experiment [4] (dose 16 μM). The invasion inhibition rate was found to be 34.15% in experiment [5] (dose 1 μM); 56.32% in experiment [5] (dose 4 μM); 65.35% in experiment [5] (dose 16 μM); 36.83% in experiment [6] (dose 1 μM); 57.35% in experiment [6] (dose 4 μM); 71.16% in experiment [6] (dose 16 μM). The invasion inhibition rate was determined as 24.83% in experiment [7] (dose 1 μM); 46.57% in experiment [7] (dose 4 μM); 71.43% in experiment [7] (dose 16 μM); 22.83% in experiment [8] (dose 1 μM); 47.82% in experiment [8] (dose 4 μM); 74.16% in experiment [8] (dose 16 μM).
As to “MERAGVPGFSPRRSSVEAKMQSTSCSVRKSSTVTAWPAVVLLLSWGQRRGE-OH [HMMW-VIII]”, the invasion inhibition rate is 35.27% in experiment [1] (dose 1 μM); 54.14% in experiment [1] (dose 4 μM); 68.21% in experiment [1] (dose 16 μM); 26.01% in experiment [2] (dose 1 μM); 57.18% in experiment [2] (dose 4 μM); 70.60% in experiment [2] (dose 16 μM). Besides, the invasion inhibition rate in experiment [3] (dose 1 μM) stood at 24.21%; in experiment [3] (dose 4 μM) it was 42.31%; in experiment [3] (dose 16 μM), 61.51%; in experiment [4] (dose 1 μM), 19.61%; in experiment [4] (dose 4 μM), 43.56%; in experiment [4] (dose 16 μM) it was 64.79%. The invasion inhibition rate stood at 34.03% in experiment [5] (dose 1 μM); 55.20% in experiment [5] (dose 4 μM); 68.03% in experiment [5] (dose 16 μM); 34.50% in experiment [6] (dose 1 μM); 55.11% in experiment [6] (dose 4 μM); 69.43% in experiment [6] (dose 16 μM). Further, the invasion inhibition rate is listed as 27.90% in experiment [7] (dose 1 μM); 45.81% in experiment [7] (dose 4 μM); 64.26% in experiment [7] (dose 16 μM); 23.71% in experiment [8] (dose 1 μM); 49.14% in experiment [8] (dose 4 μM); 76.64% in experiment [8] (dose 16 μM).
Turning to “MERAGVPGFSPRRSSVEAKMQSTSCSVRKSSTVTAWPAVVLLLSWGQRRGG-OH [HMMW-I]”, the invasion inhibition rate in experiment [1] (dose 1 μM) amounted to 33.80%; in experiment [1] (dose 4 μM) it was 53.12%; in experiment [1] (dose 16 μM), 66.67%; in experiment [2] (dose 1 μM), 26.12%; in experiment [2] (dose 4 μM), 50.08%; in experiment [2] (dose 16 μM), 68.62%. In addition, the invasion inhibition rate was determined as 20.43% in experiment [3] (dose 1 μM); 42.86% in experiment [3] (dose 4 μM); 66.51% in experiment [3] (dose 16 μM); 19.63% in experiment [4] (dose 1 μM); 44.76% in experiment [4] (dose 4 μM); 64.89% in experiment [4] (dose 16 μM). Besides, the invasion inhibition rate in experiment [5] (dose 1 μM) worked out at 31.23%; in experiment [5] (dose 4 μM), 51.32%; in experiment [5] (dose 16 μM) it was 64.08%; in experiment [6] (dose 1 μM), 32.74%; in experiment [6] (dose 4 μM) it was 51.22%; in experiment [6] (dose 16 μM) it was 69.37%. Besides, the invasion inhibition rate in experiment [7] (dose 1 μM) is on record as 27.97%; in experiment [7] (dose 4 μM) it was 48.95%; in experiment [7] (dose 16 μM), 70.49%; in experiment [8] (dose 1 μM) it was 20.75%; in experiment [8] (dose 4 μM), 46.24%; in experiment [8] (dose 16 μM), 74.84%.
As to “MGRAGVPGFSPRRSSVEAKMQSTSCSVRKSSTVTAWPAVVLLLSWGQRRGG-OH [HMMW-IX]”, the invasion inhibition rate came to 39.15% in experiment [1] (dose 1 μM); 59.28% in experiment [1] (dose 4 μM); 69.51% in experiment [1] (dose 16 μM); 26.42% in experiment [2] (dose 1 μM); 57.19% in experiment [2] (dose 4 μM); 68.35% in experiment [2] (dose 16 μM). In addition, the invasion inhibition rate in experiment [3] (dose 1 μM) was determined as 21.25%; in experiment [3] (dose 4 μM), 40.39%; in experiment [3] (dose 16 μM), 65.47%; in experiment [4] (dose 1 μM) it was 25.21%; in experiment [4] (dose 4 μM), 48.60%; in experiment [4] (dose 16 μM) it was 62.48%. Besides, the invasion inhibition rate in experiment [5] (dose 1 μM) is reported as 30.15%; in experiment [5] (dose 4 μM), 60.32%; in experiment [5] (dose 16 μM), 70.35%; in experiment [6] (dose 1 μM), 34.83%; in experiment [6] (dose 4 μM), 54.35%; in experiment [6] (dose 16 μM), 74.16%. Besides, the invasion inhibition rate in experiment [7] (dose 1 μM) is recorded as 27.83%; in experiment [7] (dose 4 μM), 49.57%; in experiment [7] (dose 16 μM), 75.43%; in experiment [8] (dose 1 μM), 24.83%; in experiment [8] (dose 4 μM), 48.82%; in experiment [8] (dose 16 μM), 75.16%.
